Results: US20240059671A1, “TYROSINE KINASE 2 (TYK2) DEGRADATION COMPOUNDS AND METHODS OF USE” (CULLGEN (SHANGHAI), INC., priority 2020, published 2024)
Entries after “also recorded” stand apart in the source; their conditions may differ.

How the values were obtained:
Assay type in all cases: cell-based
[1] = tested on: JAK1, JAK2, and JAK3; assay: Immunoblot of JAK1/2/3 protein levels in MOLT-4 cells (selectivity of TYK2 reduction); conditions: MOLT-4 cells, 0.04, 0.2, 1, and 5 μM, 24 hours
Method: MOLT-4 cells were treated with CPD-038, CPD-039, and CPD-040 at 0.04, 0.2, 1, and 5 μM concentrations for 24 hours.
Rabbit anti-JAK1antibody (3344S), anti-JAK2 antibody (3230S), anti-JAK3 antibody (8827S), anti-TYK2 antibody (14193S), anti-STAT1 antibody (9167S), anti-STAT3 antibody (9139S), anti-phospho-STAT1 (Tyr701) antibody ([…]), anti-phospho-STAT3 (Tyr705) antibody (9145S), were purchased from Cell Signaling Technology; anti-β-actin antibody (ab8226) was from Abeam; HRP-conjugated anti-α-Tubulin (GNI4310-AT) antibody was purchased from GNI. Media and other cell culture reagents were purchased from Thermo Fisher.
Cultured cells were washed with cold PBS once and lysed in cold RIPA buffer supplemented with protease inhibitors and phosphatase inhibitors (Beyotime Biotechnology). The solutions were then incubated at 4° C. for 30 minutes with gentle agitation to fully lyse cells. Cell lysates were centrifuged at 13,000 rpm for 10 minutes at 4° C. and pellets were discarded. Total protein concentrations in the lysates were determined by BCA assays (Beyotime Biotechnology). Cell lysates were mixed with Laemmli loading buffer to 1× and heated at 99° C. for 5 min. Proteins were resolved on SDS-PAGE and visualized by chemiluminescence. Images were taken by a ChemiDoc MP Imaging system (Bio-Rad). Protein bands were quantitated using the accompanied software provided by Bio-Rad.

[2] = molecular target: T1, TYK2 (Homo sapiens, UniProt P29597); assay: TYK2 protein degradation in MOLT-4 cells by immunoblotting; parameters: endogenous in cells; host or cells: MOLT-4; conditions: 24 hours
How it was run: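 Percent TYK2 degradation came from densitometry of chemiluminescent immunoblots of RIPA lysates. Before lysis, MOLT-4 cells had been treated for 24 h with each compound at 0.5 or 5 μM.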

[3] = molecular target: T1, TYK2; assay: TYK2 protein degradation in NOMO-1 cells by immunoblotting; parameters: endogenous in cells; conditions: for TYK2 Degradation (NOMO-1, 10 nM) / TYK2 Degradation (NOMO-1, 100 nM): NOMO-1 cells
How it was run: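 Read-out was densitometry of chemiluminescent TYK2 immunoblot bands from RIPA lysates after SDS-PAGE. Before lysis, NOMO-1 cells cultured in RPMI 1640 plus 10% FBS were treated for 16 h at 0.1, 1, 10, 100 and 1000 nM.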

T1 sequence (P29597 whole entry): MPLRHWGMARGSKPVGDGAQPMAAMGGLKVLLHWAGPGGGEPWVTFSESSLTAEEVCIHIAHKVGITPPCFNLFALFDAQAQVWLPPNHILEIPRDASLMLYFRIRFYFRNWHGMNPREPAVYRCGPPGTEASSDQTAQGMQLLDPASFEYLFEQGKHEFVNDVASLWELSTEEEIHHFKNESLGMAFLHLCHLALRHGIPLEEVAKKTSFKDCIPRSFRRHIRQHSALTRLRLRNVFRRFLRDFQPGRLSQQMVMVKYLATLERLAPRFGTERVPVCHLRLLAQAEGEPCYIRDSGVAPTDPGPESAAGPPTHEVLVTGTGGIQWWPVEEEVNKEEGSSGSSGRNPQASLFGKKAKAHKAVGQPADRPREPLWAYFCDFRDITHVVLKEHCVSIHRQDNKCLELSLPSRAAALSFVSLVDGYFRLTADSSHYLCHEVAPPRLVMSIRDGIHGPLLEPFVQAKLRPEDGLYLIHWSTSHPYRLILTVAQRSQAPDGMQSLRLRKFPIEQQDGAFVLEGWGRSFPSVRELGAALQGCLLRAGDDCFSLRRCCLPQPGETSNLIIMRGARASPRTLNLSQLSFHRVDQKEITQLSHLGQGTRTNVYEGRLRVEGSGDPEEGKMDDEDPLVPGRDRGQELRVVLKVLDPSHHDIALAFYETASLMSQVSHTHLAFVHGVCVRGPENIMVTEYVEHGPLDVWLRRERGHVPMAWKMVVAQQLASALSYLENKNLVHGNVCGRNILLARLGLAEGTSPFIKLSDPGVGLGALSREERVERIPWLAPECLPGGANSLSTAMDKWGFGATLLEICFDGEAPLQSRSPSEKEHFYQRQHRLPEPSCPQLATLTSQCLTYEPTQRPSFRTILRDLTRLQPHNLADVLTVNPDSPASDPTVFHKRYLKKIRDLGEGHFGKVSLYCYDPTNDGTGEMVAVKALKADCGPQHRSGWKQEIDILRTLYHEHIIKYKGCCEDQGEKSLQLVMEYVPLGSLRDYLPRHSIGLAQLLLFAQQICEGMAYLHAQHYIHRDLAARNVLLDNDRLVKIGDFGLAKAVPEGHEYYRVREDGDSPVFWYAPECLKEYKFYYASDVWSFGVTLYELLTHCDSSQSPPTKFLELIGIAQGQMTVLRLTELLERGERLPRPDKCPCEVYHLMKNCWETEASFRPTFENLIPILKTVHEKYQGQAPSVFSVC

Q: Which results are given for CNC(=O)c1nnc(NC(=O)CNC(=O)CCCCCCC(=O)N[C@H](C(=O)N2C[C@H](O)C[C@H]2C(=O)NCc2ccc(-c3scnc3C)cc2)C(C)(C)C)cc1Nc1cccc(-c2ncn(C)n2)c1OC [CPD-038, N1-((S)-1-((2S,4R)-4-hydroxy-2-((4-(4-methylthiazol-5-yl)benzyl)carbamoyl)pyrrolidin-1-yl)-3,3-dimethyl-1-oxobutan-2-yl)-N8-(2-((5-((2-methoxy-3-(1-methyl-1H-1,2,4-triazol-3-yl)phenyl)amino)-6-(methylcarbamoyl)pyridazin-3-yl)amino)-2-oxoethyl)octanediamide]?
A: Selectivity of TYK2 protein reduction over JAK1, JAK2, and JAK3 (FIG. 1) [1]: very selective at the reduction protein levels of TYK2 over JAK1, JAK2, and JAK3; also recorded: highly selective at the degradation of TYK2 over JAKT/2/3 proteins; TYK2 Degradation (0.5 μM) ([2]; MOLT-4 cells, 0.5 μM): 50%; TYK2 Degradation (5 μM) ([2]; MOLT-4 cells, 5 μM): 90%; Reduction of TYK2 protein levels over a dose range (FIG. 1) ([2]; MOLT-4 cells, 0.04, 0.2, 1, and 5 μM): concentration-dependently reduced the TYK2 proteins levels; also recorded: reduce TYK2 protein levels in a concentration-dependent manner

Q: What does the source list for CNC(=O)c1nnc(Nc2ccc(C(=O)NCCCCCCCNc3cccc4c3C(=O)N(C3CCC(=O)NC3=O)C4=O)cn2)cc1Nc1cccc(-c2ncn(C)n2)c1OC (stereo not drawn) [CPD-157, 6-((5-((7-((2-(2,6-dioxopiperidin-3-yl)-1,3-dioxoisoindolin-4-yl)amino)heptyl)carbamoyl)pyridin-2-yl)amino)-4-((2-methoxy-3-(1-methyl-1H-1,2,4-triazol-3-yl)phenyl)amino)-N-methylpyridazine-3-carboxamide]?
A: TYK2 Degradation (NOMO-1, 10 nM) [3]: A (A: ≥60% TYK2 degradation); TYK2 Degradation (NOMO-1, 100 nM) [3]: C (C: ≤20% TYK2 degradation); Reduction of TYK2 protein levels over a dose range (FIG. 2) ([3]; NOMO-1 cells, 0.1, 1, 10, 100 and 1000 nM, 16 hours): concentration-dependently reduced the TYK2 proteins levels; also recorded: highly potent in reducing TYK2 protein levels

Q: What does the source list for CNC(=O)c1nnc(Nc2ccc(C(=O)NCCOCCNc3cccc4c3C(=O)N(C3CCC(=O)NC3=O)C4=O)cn2)cc1Nc1cccc(-c2ncn(C)n2)c1OC (stereo not drawn) [CPD-159, 6-((5-((2-(2-((2-(2,6-dioxopiperidin-3-yl)-1,3-dioxoisoindolin-4-yl)amino)ethoxy)ethyl)carbamoyl)pyridin-2-yl)amino)-4-((2-methoxy-3-(1-methyl-1H-1,2,4-triazol-3-yl)phenyl)amino)-N-methylpyridazine-3-carboxamide]?
A: TYK2 Degradation (NOMO-1, 10 nM) [3]: A (A: ≥60% TYK2 degradation); TYK2 Degradation (NOMO-1, 100 nM) [3]: A (A: ≥60% TYK2 degradation)

Q: With CNC(=O)c1nnc(Nc2ccc(C#CC3CCN(CCCCC(=O)N[C@H](C(=O)N4C[C@H](O)C[C@H]4C(=O)N[C@@H](C)c4ccc(-c5scnc5C)cc4)C(C)(C)C)CC3)cn2)cc1Nc1cccc(-c2ncn(C)n2)c1OC [CPD-160, 6-((5-((1-(5-(((S)-1-((2S,4R)-4-hydroxy-2-(((S)-1-(4-(4-methylthiazol-5-yl)phenyl)ethyl)carbamoyl)pyrrolidin-1-yl)-3,3-dimethyl-1-oxobutan-2-yl)amino)-5-oxopentyl)piperidin-4-yl)ethynyl)pyridin-2-yl)amino)-4-((2-methoxy-3-(1-methyl-1H-1,2,4-triazol-3-yl)phenyl)amino)-N-methylpyridazine-3-carboxamide] as the compound, how does the “TYK2 Degradation (NOMO-1, 100 nM)” value [3] read?
A: C (C: ≤20% TYK2 degradation)

Q: CNC(=O)c1nnc(Nc2ccc(C(=O)NC3CC(CC(=O)N[C@H](C(=O)N4C[C@H](O)C[C@H]4C(=O)N[C@@H](C)c4ccc(-c5scnc5C)cc4)C(C)(C)C)C3)cn2)cc1Nc1cccc(-c2ncn(C)n2)c1OC (stereo partly drawn) [CPD-161, 6-((5-((3-(2-(((S)-1-((2S,4R)-4-hydroxy-2-(((S)-1-(4-(4-methylthiazol-5-yl)phenyl)ethyl)carbamoyl)pyrrolidin-1-yl)-3,3-dimethyl-1-oxobutan-2-yl)amino)-2-oxoethyl)cyclobutyl)carbamoyl)pyridin-2-yl)amino)-4-((2-methoxy-3-(1-methyl-1H-1,2,4-triazol-3-yl)phenyl)amino)-N-methylpyridazine-3-carboxamide] was tested. Which “TYK2 Degradation (NOMO-1, 10 nM)” value [3] did it give?
A: C (C: ≤20% TYK2 degradation)

Q: And the “TYK2 Degradation (NOMO-1, 100 nM)” value [3]?
A: A (A: ≥60% TYK2 degradation)

Q: With CNC(=O)c1nnc(Nc2ccc(CNCCCCCCCC(=O)N[C@H](C(=O)N3C[C@H](O)C[C@H]3C(=O)N[C@@H](C)c3ccc(-c4scnc4C)cc3)C(C)(C)C)cn2)cc1Nc1cccc(-c2ncn(C)n2)c1OC [CPD-162, 6-((5-(((8-(((S)-1-((2S,4R)-4-hydroxy-2-(((S)-1-(4-(4-methylthiazol-5-yl)phenyl)ethyl)carbamoyl)pyrrolidin-1-yl)-3,3-dimethyl-1-oxobutan-2-yl)amino)-8-oxooctyl)amino)methyl)pyridin-2-yl)amino)-4-((2-methoxy-3-(1-methyl-1H-1,2,4-triazol-3-yl)phenyl)amino)-N-methylpyridazine-3-carboxamide] as the compound, how does the “TYK2 Degradation (NOMO-1, 10 nM)” value [3] read?
A: B (B: <60% TYK2 degradation, and >20% TYK2 degradation)

Q: And the “TYK2 Degradation (NOMO-1, 100 nM)” value [3]?
A: A (A: ≥60% TYK2 degradation)

Q: With CNC(=O)c1nnc(Nc2ccc(C(=O)NCCCCNc3ccc4c(c3)C(=O)N(C3CCC(=O)NC3=O)C4=O)cn2)cc1Nc1cccc(-c2ncn(C)n2)c1OC (stereo not drawn) [CPD-163, 6-((5-((4-((2-(2,6-dioxopiperidin-3-yl)-1,3-dioxoisoindolin-5-yl)amino)butyl)carbamoyl)pyridin-2-yl)amino)-4-((2-methoxy-3-(1-methyl-1H-1,2,4-triazol-3-yl)phenyl)amino)-N-methylpyridazine-3-carboxamide] as the compound, how does the “TYK2 Degradation (NOMO-1, 100 nM)” value [3] read?
A: C (C: ≤20% TYK2 degradation)

Q: How did the “TYK2 Degradation (NOMO-1, 10 nM)” value [3] turn out when CNC(=O)c1nnc(Nc2ccc(C(=O)NCCCCCCNc3ccc4c(c3)C(=O)N(C3CCC(=O)NC3=O)C4=O)cn2)cc1Nc1cccc(-c2ncn(C)n2)c1OC (stereo not drawn) [CPD-165, 6-((5-((6-((2-(2,6-dioxopiperidin-3-yl)-1,3-dioxoisoindolin-5-yl)amino)hexyl)carbamoyl)pyridin-2-yl)amino)-4-((2-methoxy-3-(1-methyl-1H-1,2,4-triazol-3-yl)phenyl)amino)-N-methylpyridazine-3-carboxamide] was run?
A: C (C: ≤20% TYK2 degradation)

Q: What about the “TYK2 Degradation (NOMO-1, 100 nM)” value [3] of the same compound?
A: C (C: ≤20% TYK2 degradation)

Q: Which “TYK2 Degradation (NOMO-1, 100 nM)” value [3] does the source give for CNC(=O)c1nnc(Nc2ccc(C(=O)NCCCCCCCNc3ccc4c(c3)C(=O)N(C3CCC(=O)NC3=O)C4=O)cn2)cc1Nc1cccc(-c2ncn(C)n2)c1OC (stereo not drawn) [CPD-166, 6-((5-((7-((2-(2,6-dioxopiperidin-3-yl)-1,3-dioxoisoindolin-5-yl)amino)heptyl)carbamoyl)pyridin-2-yl)amino)-4-((2-methoxy-3-(1-methyl-1H-1,2,4-triazol-3-yl)phenyl)amino)-N-methylpyridazine-3-carboxamide] here?
A: C (C: ≤20% TYK2 degradation)

Q: What does the source list for CNC(=O)c1nnc(Nc2ccc(C(=O)NCCCCCCCCNc3ccc4c(c3)C(=O)N(C3CCC(=O)NC3=O)C4=O)cn2)cc1Nc1cccc(-c2ncn(C)n2)c1OC (stereo not drawn) [CPD-167, 6-((5-((8-((2-(2,6-dioxopiperidin-3-yl)-1,3-dioxoisoindolin-5-yl)amino)octyl)carbamoyl)pyridin-2-yl)amino)-4-((2-methoxy-3-(1-methyl-1H-1,2,4-triazol-3-yl)phenyl)amino)-N-methylpyridazine-3-carboxamide]?
A: TYK2 Degradation (NOMO-1, 10 nM) [3]: A (A: ≥60% TYK2 degradation); TYK2 Degradation (NOMO-1, 100 nM) [3]: C (C: ≤20% TYK2 degradation)

Q: CNC(=O)c1nnc(Nc2ccc(C(=O)NCCOCCNc3ccc4c(c3)C(=O)N(C3CCC(=O)NC3=O)C4=O)cn2)cc1Nc1cccc(-c2ncn(C)n2)c1OC (stereo not drawn) [CPD-168, 6-((5-((2-(2-((2-(2,6-dioxopiperidin-3-yl)-1,3-dioxoisoindolin-5-yl)amino)ethoxy)ethyl)carbamoyl)pyridin-2-yl)amino)-4-((2-methoxy-3-(1-methyl-1H-1,2,4-triazol-3-yl)phenyl)amino)-N-methylpyridazine-3-carboxamide] was tested. Which “TYK2 Degradation (NOMO-1, 100 nM)” value [3] did it give?
A: C (C: ≤20% TYK2 degradation)
